From patent EP4545091A1 (priority 2023, dated 2025) come the findings set out here.

Broadly, the IC50 is the concentration needed to halve the response being measured. High values mean lower potency, low ones higher potency.

Bridges are numbered along the chain shown (N, C = ends).

One test has as its system Omicron XBB.1.5 spike. The test is classed as cell-based, SARS-CoV-2.
In test [1] the test system is SARS-CoV-2 Omicron BA.1 variant. To be noted: 48 h.

On to “VAACNLPIVRGPCRAFIQLWAFDAVKGKCVLFPYGGCQGNGNKFYSEKECREYCGVPGDGD (disulfide 4-54, 13-37, 29-50) [Trypstatin]”, for which the “activity against Omicron XBB.1.5 variant in a pseudoparticle assay” value in the test on Omicron XBB.1.5 spike was “verified activity”. For the same sequence, in test [1], the IC50 amounted to 120 nM.
